Experimental data reported in PubChem BioAssay AID1963433 (Molecular Pharmacology Branch, DTP, NCI, 2024).

Tested on: 772245-204-R-J1-PDC complex spheroid growth
Test: Anticancer human tumor 772245-204-R-J1-PDC patient-derived rhabdomyosarcoma cell line growth inhibition [Asc]
Details: for IC50: curve of first compound; for viability, T/C: stronger effect = lower value
Summary of the method: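 Complex solid-tumor spheroids incorporating human endothelial and mesenchymal stem cells received single agents or combinations over half-log dilution ranges anchored to clinical Cmax.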

[1] = second compound 0.03 µM, first compound 0.0316 µM
[2] = second compound 0.03 µM, first compound 0.1 µM
[3] = second compound 0.03 µM, first compound 0.316 µM
[4] = second compound 0.03 µM, first compound 1 µM
[5] = second compound 0.03 µM, first compound 3.16 µM
[6] = second compound 0.03 µM, first compound 10 µM
[7] = second compound 0.0949 µM, first compound 0.0316 µM
[8] = second compound 0.0949 µM, first compound 0.1 µM
[9] = second compound 0.0949 µM, first compound 0.316 µM
[10] = second compound 0.0949 µM, first compound 1 µM
[11] = second compound 0.0949 µM, first compound 3.16 µM
[12] = second compound 0.0949 µM, first compound 10 µM
[13] = second compound 0.3 µM, first compound 0.0316 µM
[14] = second compound 0.3 µM, first compound 0.1 µM
[15] = second compound 0.3 µM, first compound 0.316 µM
[16] = second compound 0.3 µM, first compound 1 µM
[17] = second compound 0.3 µM, first compound 3.16 µM
[18] = second compound 0.3 µM, first compound 10 µM
[19] = second compound 0.949 µM, first compound 0.0316 µM
[20] = second compound 0.949 µM, first compound 0.1 µM
[21] = second compound 0.949 µM, first compound 0.316 µM
[22] = second compound 0.949 µM, first compound 1 µM
[23] = second compound 0.949 µM, first compound 3.16 µM
[24] = second compound 0.949 µM, first compound 10 µM
[25] = second compound 3 µM, first compound 0.0316 µM
[26] = second compound 3 µM, first compound 0.1 µM
[27] = second compound 3 µM, first compound 0.316 µM
[28] = second compound 3 µM, first compound 1 µM
[29] = second compound 3 µM, first compound 3.16 µM
[30] = second compound 3 µM, first compound 10 µM
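Note: compound exposure lasted seven days.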
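Throughout, for viability, T/C: 100% = DMSO vehicle control viability.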

SMILES | IC50 (second compound 0.03 µM) [µM] | IC50 (second compound 0.0949 µM) [µM] | IC50 (second compound 0.3 µM) [µM] | IC50 (second compound 0.949 µM) [µM] | IC50 (second compound 3 µM) [µM] | viability, T/C [1] [%] | viability, T/C [2] [%] | viability, T/C [3] [%] | viability, T/C [4] [%] | viability, T/C [7] [%] | viability, T/C [8] [%] | viability, T/C [9] [%] | viability, T/C [10] [%] | viability, T/C [13] [%] | viability, T/C [14] [%] | viability, T/C [15] [%] | viability, T/C [16] [%] | viability, T/C [19] [%] | viability, T/C [20] [%] | viability, T/C [21] [%] | further results
C#Cc1c(F)ccc2cc(O)cc(-c3ncc4c(N5CC6CCC(C5)N6)nc(OCC56CCCN5CC(F)C6)nc4c3F)c12 (stereo not given) + CCN1C(C(=O)NC23CCC(C(=O)O)(CC2)CC3)C(c2cccc(Cl)c2F)C2(C(=O)Nc3cc(Cl)ccc32)C12CCCCC2 | > 10 | > 10 | > 10 | > 10 | > 10 | 98.8 | 106 | 94.8 | 95.8 | 98.4 | 91.9 | 93 | 86 | 108 | 99.2 | 106 | 111 | 90 | 90.9 | 86 | viability, T/C [5]: 118%; viability, T/C [6]: 89.5%; viability, T/C [11]: 93.5%; viability, T/C [12]: 78.4%; viability, T/C [17]: 81.2%; viability, T/C [18]: 80.6%; viability, T/C [22]: 86.9%; viability, T/C [23]: 91.6%; viability, T/C [24]: 76.5%; viability, T/C [25]: 73.1%; viability, T/C [26]: 79.2%; viability, T/C [27]: 77.1%; viability, T/C [28]: 67.8%; viability, T/C [29]: 67.3%; viability, T/C [30]: 54.2%
C=C(F)C(=O)N1CCN(c2nc(OCC3CCCN3C)nc3c2CCN(c2cccc4cccc(Cl)c24)C3)CC1CC#N (stereo not given) + CCN1C(C(=O)NC23CCC(C(=O)O)(CC2)CC3)C(c2cccc(Cl)c2F)C2(C(=O)Nc3cc(Cl)ccc32)C12CCCCC2 | 3.92 | 3.94 | 4.43 | 3.29 | 2.11 | 94.9 | 101 | 83.1 | 97.2 | 93.7 | 94.5 | 85.3 | 89.6 | 95.8 | 96.7 | 85.6 | 87 | 92.3 | 83.7 | 91.6 | viability, T/C [5]: 61.6%; viability, T/C [6]: 0.2%; viability, T/C [11]: 61.7%; viability, T/C [12]: 0.17%; viability, T/C [17]: 71.8%; viability, T/C [18]: 0.18%; viability, T/C [22]: 96.7%; viability, T/C [23]: 51.9%; viability, T/C [24]: 0.16%; viability, T/C [25]: 72.7%; viability, T/C [26]: 79.8%; viability, T/C [27]: 72.5%; viability, T/C [28]: 73%; viability, T/C [29]: 37.5%; viability, T/C [30]: 0.38%
C=CC(=O)N1CCN(c2nc(=O)n(-c3c(C)ccnc3C(C)C)c3nc(-c4c(O)cccc4F)c(F)cc23)C(C)C1 (stereo not given) + CCN1C(C(=O)NC23CCC(C(=O)O)(CC2)CC3)C(c2cccc(Cl)c2F)C2(C(=O)Nc3cc(Cl)ccc32)C12CCCCC2 | > 10 | > 10 | > 10 | > 10 | > 10 | 105 | 102 | 94.9 | 113 | 112 | 104 | 103 | 102 | 104 | 111 | 113 | 113 | 111 | 94.8 | 99.5 | viability, T/C [5]: 110%; viability, T/C [6]: 86.4%; viability, T/C [11]: 106%; viability, T/C [12]: 103%; viability, T/C [17]: 113%; viability, T/C [18]: 93.8%; viability, T/C [22]: 105%; viability, T/C [23]: 104%; viability, T/C [24]: 79.3%; viability, T/C [25]: 81.9%; viability, T/C [26]: 85.7%; viability, T/C [27]: 74%; viability, T/C [28]: 77%; viability, T/C [29]: 75.2%; viability, T/C [30]: 60.8%
CNC(C)C(=O)NC1CN(S(=O)(=O)c2cccc(S(=O)(=O)N3CCC4CCC(C(=O)NC(c5ccccc5)c5ccccc5)N4C(=O)C(NC(=O)C(C)NC)C3)c2)CCC2CCC(C(=O)NC(c3ccccc3)c3ccccc3)N2C1=O (stereo not given) + CCN1C(C(=O)NC23CCC(C(=O)O)(CC2)CC3)C(c2cccc(Cl)c2F)C2(C(=O)Nc3cc(Cl)ccc32)C12CCCCC2 | > 1 | > 1 | > 1 | > 1 | 0.577 | 88 | 91.8 | 94.9 | 86.8 | 75.3 | 89.7 | 79.2 | 85.3 | 84.6 | 68.9 | 70.8 | 88.1 | 78.8 | 75.2 | 73 | viability, T/C (second compound 0.03 µM, first compound 0.00316 µM): 86.2%; viability, T/C (second compound 0.03 µM, first compound 0.01 µM): 102%; viability, T/C (second compound 0.0949 µM, first compound 0.00316 µM): 94.5%; viability, T/C (second compound 0.0949 µM, first compound 0.01 µM): 98.9%; viability, T/C (second compound 0.3 µM, first compound 0.00316 µM): 74.8%; viability, T/C (second compound 0.3 µM, first compound 0.01 µM): 83%; viability, T/C (second compound 0.949 µM, first compound 0.00316 µM): 88.2%; viability, T/C (second compound 0.949 µM, first compound 0.01 µM): 87.4%; viability, T/C [22]: 62.4%; viability, T/C (second compound 3 µM, first compound 0.00316 µM): 72.8%; viability, T/C (second compound 3 µM, first compound 0.01 µM): 62.2%; viability, T/C [25]: 60.2%; viability, T/C [26]: 56.7%; viability, T/C [27]: 43.2%; viability, T/C [28]: 53.2%
